# Patent publication US20200289521A1, “USE OF VITAMIN K IN COMBINATION WITH ANTICOAGULANTS” (KAYDENCE PHARMA AS, priority 2019, published 2020)
# Assays:
# VSMCs [1] = assay: Hypoxia (CoCl2) induced oxidative stress in VSMCs (DCFDA); assay type: cell-based
# Experimental: This study was performed to determine whether intracellular oxidative stress in VSCMs is derived from mitochondrial dysfunction. To perform this study, VSMCs were incubated with cobalt chloride, a known stabilizer of HIF1a. Cobalt chloride binding to HIF1a prevents the degradation of HIF1a and thus results in a cellular hypoxia state. HIF1a has been implicated in cancer biology as well as a number of other pathophysiologies, specifically in areas of vascularization and angiogenesis, energy metabolism, cell survival, and tumor invasion. Under normal circumstances, after injury, HIF1a is degraded by the enzyme prolyl hydroxylase (PHD). The continued up-regulation of HIF1a (mimicked by cobalt chloride) promotes tumor growth and metastasis through its role in initiating angiogenesis and regulating cellular metabolism to overcome hypoxia. Hypoxia promotes apoptosis in both normal and tumor cells. Additionally, hypoxia generates significant intracellular oxidative stress.
# To perform the study, VSMCs (10,000 cells/well) were plated in a 96-well plate and left to adhere overnight. Next, the medium was changed to a medium supplemented with 50 μM CoCl2 for 19 hours. The next day, cells were washed and incubated for 1 hour with 20 μM DCFDA in the presence of a vehicle (solvent for CoCl2 and vitamin K2 (MK-7)/UQ10), 10 μM vitamin K2 (MK-7), or 10 μM UQ10 in medium. The medium was then changed to a medium supplemented with vehicle, vitamin K2 (MK-7)/UQ10, or CoCl2, and fluorescent was measured for 6 hours. Fluorescence intensity was normalized for cell count.
# VSMCs [2] = assay: ATP increase in VSMCs, 48 hours, with CoCl2 arm (luminescence); assay type: cell-based
# Experimental: (§1) This study was performed to further investigate the origin of ATP production that is influenced by vitamin K2 (MK-7). To perform this study, VSCMs (5000 cells/well) were plated in 96-well plates and left to adhere overnight. Next, cells were incubated for 48 hours with either vehicle, CoCl2 (100 μM), vitamin K2 (MK-7) (10 μM), or UQ10 (10 μM). Hoechst was added to correct for cell number (1 μg/mL). Next, ATP was measured using mammalian lysis buffer for 5 minutes, after which 50 μL ATP substrate solution was added to the wells and incubated for 10 minutes in a dark environment. Finally, medium was transferred to a white plate to measure luminescence.
# [3] = system: whole-blood thrombogenicity; assay: T-TAS Total Thrombus-formation Analysis of whole blood from treated TGR rats; assay type: in vivo, transgenic Ren-2 rats [TGR(mREN-2)27]; conditions: for AUC: area under flow pressure curve for 30 min, dabigatran 7.5, rivaroxaban 5.0, MK-7 1.5 mg/kg/day; for AUC / OT (time, min) / T10 (time, min): two weeks in diet; for OT (time, min) / T10 (time, min): dabigatran 7.5, rivaroxaban 5.0, vitamin K2 (MK-7) 1.5 mg/kg/day
# Experimental: (§2) This experiment was conducted in order to evaluate the effects of vitamin K2 (MK-7) on the anticoagulant activity of the new oral anticoagulants (NOAC) rivaroxaban and dabigatran using the T-TAS Total Thrombus-formation Analysis System. The T-TAS Total Thrombus-formation Analysis System is a microchip-based flow chamber system capable of evaluating whole-blood thrombogenicity. It is a useful tool in monitoring the efficacy of anticoagulants on thrombus formation and predicting the risk of bleeding complications. To perform the study, 45 wild-type male Sprague-Dawley and 45 transgenic male Ren-2 rats [TGR(mREN-2)27] at the age of 10-11 weeks at the beginning of the treatment period were purchased from animal facility IKEM-CEM Institute of Clinical and Experimental Medicine (Prague, Czech Republic). All animals in the experiment were housed in individually ventilated cages (2-3 rats per cage) and kept in the animal rooms of JCET at a relative humidity of 55±10%, a temperature of 22±2° C., and a light cycle of 7 AM to 7 PM. The rats had free access to food and water. After delivery, animals were randomly divided into 10 experimental groups (5 or 10 rats per group), as indicated below in Table 1. Four days before the start of the treatment, the first part of animals' body weight and food intake was measured in selected representative three cages (rats n=9) to calculate the appropriate amount of tested compounds required for addition to the diet to obtain the dosing indicated in Table 1. It was estimated that food intake was approximately 30 g of chow per rat per day. The animals were fed for two weeks with AIN-93G diet supplemented with rivaroxaban or dabigatran with/without Vitamin K2 (MK-7), as indicated in Table 1. The animals were then anesthetized in order to draw blood samples for further analysis. The body mass of the rats was measured at the beginning and at the end of treatment. At the beginning and at the end of treatment, the food intake per day was measured in representative group of animals to monitor the daily dosing of tested compounds (per kg of body mass). The thrombus formation in vitro was measured in whole blood using a microchip-based flow chamber system according to manufacturers' protocol (Total Thrombus-formation Analyser System, T-TAS; Fujimori Kogyo Co., Ltd., Tokyo, Japan). For the analysis, citrated whole blood (480 μl) was mixed with 20 μl of 300 mM CaCl2 solution containing 1.25 mg/ml CTI (Corn Trypsin Inhibitor). […] The obtained flow pressure pattern for each sample was used to analyze thrombus formation based on the following estimated parameters: […]
# [4] = system: whole-blood thrombogenicity; assay: T-TAS Total Thrombus-formation Analysis of whole blood from treated Sprague-Dawley rats; assay type: in vivo; conditions: for AUC: area under flow pressure curve for 30 min, dabigatran 7.5, rivaroxaban 5.0, MK-7 1.5 mg/kg/day; for AUC / OT (time, min) / T10 (time, min): two weeks in diet; for OT (time, min) / T10 (time, min): dabigatran 7.5, rivaroxaban 5.0, vitamin K2 (MK-7) 1.5 mg/kg/day
# Experimental: as §2
# VSMCs [5] = assay: ATP increase in VSMCs, 24 hours (luminescence); assay type: cell-based; conditions: 10 μM
# Experimental: This study was performed to determine if vitamin K2 (MK-7) affects ATP generation. ATP is generated via glycolysis in the cytoplasm and via both the Krebs-cycle and oxidative phosphorylation in the mitochondria. ATP generation via glycolysis delivers only 2 ATP, whereas ATP generation in the mitochondria generates some 32 ATP.
# as §1, with “To” for “This study was performed to further investigate the origin of ATP production that is influenced by vitamin K2 (MK-7). To”, “24” for “48”, “vehicle,” for “vehicle, CoCl2 (100 μM),”, “minutes” for “minutes,”, “Finally, the” for “Finally,”, “luminescence” for “luminescence.”
# VSMCs [6] = assay: Warfarin-induced oxidative stress in VSMCs, warfarin concentration series (DCFDA); assay type: cell-based; conditions: warfarin 10 to 100 μM, fluorescence over 6 hours
# Experimental: It is known that the level of reactive oxygen species in cells can be measured by measuring the conversion of 2′,7′-dichlorofluorescein diacetate (DCFDA) to the fluorescent dye 2′,7′-dichlorofluorescein (DCF). The fluorescence generated by cells subjected to DCFDA is directly proportional to the amount of oxidized DCFDA to DCF.
# In this study, vitamin K metabolism was blocked using the vitamin K-antagonist warfarin. The study was conducted to investigate whether interference with vitamin K metabolism would cause intracellular oxidative stress. To perform the study, VSMCs (10,000 cells/well) were plated in 96-well plates and left to adhere overnight. Next, cells were incubated for 1 hour with 20 μM DCFDA. The medium was then changed to a medium supplemented with different concentrations of warfarin ranging from 10 to 100 μM, and fluorescence intensity was measured over 6 hours. Fluorescence was normalized for number of cells.
# [7] = system: human vascular smooth muscle cells (hVSMCs); assay: ATP measurement in hVSMCs with warfarin and/or vitamin K2 (luminescence); assay type: cell-based; conditions: 24 hours; warfarin 10 or 50 μM, vitamin K2 (MK-7) 10 μM
# Experimental: This study was performed in order to determine the effect of vitamin K2 (MK-7) on warfarin-induced oxidative stress in muscles. To perform this study, human vascular smooth muscle cells (hVSMCs; 5,000 cells/well) were plated in 96-well dark plates and left to adhere overnight. Next, cells were incubated for 24 hours with either vehicle only (as blank control), warfarin (10 or 50 μM), vitamin K2 (MK-7) (10 μM), or a combination of warfarin (50 μM) and vitamin K2 (MK-7) (10 μM). Hoechst was added to correct for cell number (1 μg/mL). Next, ATP was measured using mammalian lysis buffer for 5 minutes after which 50 μL ATP substrate solution was added to the wells and incubated for 10 minutes in a dark environment. Finally, medium was transferred to a white plate to measure luminescence.
SMILES,AUC [3],"OT (time, min) [3]","T10 (time, min) [3]",AUC [4],"OT (time, min) [4]","T10 (time, min) [4]",also measured
"[Cl][Co][Cl] [CoCl2, cobalt chloride]",–,–,–,–,–,–,"oxidative stress induced by the hypoxia inducer (VSMCs [1]; 50 μM CoCl2): induces increased oxidative stress; ATP production compared to vehicle (VSMCs [2]; CoCl2 100 μM, vitamin K2 (MK-7) 10 μM): decreased ATP production"
[H]/N=C(/N)c1ccc(NCc2nc3cc(C(=O)N(CCC(=O)O)c4ccccn4)ccc3n2C)cc1 [Dabigatran],1898 ± 80.66,8.011 ± 1.317 min,4.780 ± 0.7073 min,2039 ± 32.5,5.753 ± 0.587 min,3.386 ± 0.237 min,–
O=C(NC[C@H]1CN(c2ccc(N3CCOCC3=O)cc2)C(=O)O1)c1ccc(Cl)s1 [Rivaroxaban],1876 ± 91.28,8.324 ± 1.578 min,4.996 ± 0.8216 min,2011 ± 28.7,6.133 ± 0.518 min,3.732 ± 0.266 min,thrombus formation ([3]; anticoagulant alone): also inhibited thrombus formation; thrombus formation ([4]; anticoagulant alone): inhibited thrombus formation
COC1=C(OC)C(=O)C(C/C=C(\C)CC/C=C(\C)CC/C=C(\C)CC/C=C(\C)CC/C=C(\C)CC/C=C(\C)CC/C=C(\C)CC/C=C(\C)CC/C=C(\C)CCC=C(C)C)=C(C)C1=O [UQ10],–,–,–,–,–,–,"ATP production compared to the vehicle (VSMCs [5]): only vitamin K2 (MK-7) increased ATP production; hypoxia induced oxidative stress (VSMCs [1]; 50 μM CoCl2 for 19 hours, test substance 10 μM, 6 hours): This effect was not found; ATP levels compared to CoCl2 (VSMCs [2]; 10 μM vs CoCl2 100 μM): significant higher ATP levels"
CC(=O)CC(c1ccccc1)c1c(O)c2ccccc2oc1=O (stereo not drawn) [warfarin],–,–,–,–,–,–,intracellular oxidative stress (VSMCs [6]): did cause intracellular oxidative stress; cell ATP / ATP generation [7]: does not affect ATP generation
